Ends that are not written are not given here.
Tests used:
[1] = Phase I safety and tolerability (NCI CTCAE v4.0, DLT) in patients with advanced solid tumors; type: in vivo, human
Description: Dose-escalation was carried out according to a standard 3 + 3 design. At each dose level, cohorts of 3 to 6 patients were scheduled to receive two 21-day cycles of SOR-C13 treatment. SOR-C13 was administered on days 1–3 and 8–10 of the 21-day cycle was administered by IV infusion. The study drug (500 mg/vial) was dissolved in water for injection (2 mL) and diluted in saline prior to infusion to provide a 250 mL (total) infusion volume. Infusion time was increased after the first five patients from the initial 20 min to 90 min with the aim of increasing the safety and tolerability of the drug. In the event of clinically meaningful response (tumor response or stable disease), additional SOR-C13 cycles were offered to study patients. Post-treatment follow-up was completed one and two months after completion of SOR-C13 treatment.
A Safety Monitoring Committee (SMC) oversaw the safety aspects of the study. Safety endpoints included: incidence of adverse events (AEs) and serious AEs (SAEs), withdrawals due to AEs, Dose Limiting Toxicities (DLTs), infusion reactions, deaths on study, vital signs, electrocardiogram (ECGs), clinical laboratory parameters and changes to the treatment regimen (dose delay, dose decrease) due to AEs. The National Cancer Institute (NCI) Common Terminology Criteria for Adverse Events (CTCAE) Version 4.0 was used to grade the severity of AEs.
Based on the safety data from the first two cohorts, the regulatory authorities approved a revision of the definition to “one occurrence of ≥Grade 3 toxicity or one occurrence of Grade 2 hypocalcemia, over the first 21-day cycle”. The latter definition was used for the subsequent four cohorts in the study.

[2] = peptide degradation in human plasma; type: in vitro ADME
[3] = Cohort 1 5.5 mg/kg N = 3, 20-min infusions
[4] = Cohort 1, 5.50 mg/kg, C1 D2, Dose# 2
[5] = Cohort 1, 5.50 mg/kg, C1 D8, Dose# 4
[6] = Cohort 2 2.75 mg/kg N = 2, 20-min infusions
[7] = Cohort 2, 2.75 mg/kg, C1 D2, Dose# 2
[8] = Cohort 3 1.375 mg/kg N = 3, 90-min infusions
[9] = Cohort 4 2.75 mg/kg N = 6, 90-min infusions
[10] = Cohort 4, 2.75 mg/kg, C1 D3, Dose# 3
[11] = Cohort 5 4.13 mg/kg N = 3, 90-min infusions
[12] = Cohort 6 6.20 mg/kg N = 6, 90-min infusions
[13] = Cohort 6, 6.20 mg/kg, C1 D8, Post 3
[14] = Cohort 6, 6.20 mg/kg, C1 D18, Post 6

KEFLHPSKVDLPR [SOR-C13]
Any TEAEs, Event ([1]; All Patients N = 23): 185 | TEAEs Definitely related, Event ([1]; All Patients N = 23): 5 | TEAEs Possibly related, Event ([1]; All Patients N = 23): 29 | TEAEs Probably related, Event ([1]; All Patients N = 23): 7 | TEAEs Remotely/Unlikely related, Event ([1]; All Patients N = 23): 10 | TEAEs Remotely/Unlikely related, Patient ([1]; All Patients N = 23): 4 (17) | TEAEs Unrelated, Event ([1]; All Patients N = 23): 134 | TEAEs Unrelated, Patient ([1]; All Patients N = 23): 21 (91) | Any TEAEs, Event [1, 3]: 49 | Any TEAEs, Patient [1, 3]: 3 (100) | TEAEs Definitely related, Event [1, 3]: 5 | TEAEs Definitely related, Patient [1, 3]: 2 (67) | TEAEs Possibly related, Event [1, 3]: 3 | TEAEs Possibly related, Patient [1, 3]: 2 (67) | TEAEs Probably related, Event [1, 3]: 3 | TEAEs Probably related, Patient [1, 3]: 2 (67) | TEAEs Remotely/Unlikely related, Event [1, 3]: 4 | TEAEs Remotely/Unlikely related, Patient [1, 3]: 1 (33) | TEAEs Unrelated, Event [1, 3]: 34 | TEAEs Unrelated, Patient [1, 3]: 3 (100) | DLT Blood calcium decreased, Relationship [1, 4]: Probably related | DLT Blood calcium decreased, Severity [1, 4]: Grade 2 | DLT Blood calcium decreased, Relationship [1, 5]: Definitely related | DLT Blood calcium decreased, Severity [1, 5]: Grade 2 | Any TEAEs, Event [1, 6]: 11 | Any TEAEs, Patient [1, 6]: 2 (100) | TEAEs Definitely related, Event [1, 6]: 0 | TEAEs Definitely related, Patient [1, 6]: 0 (0) | TEAEs Possibly related, Event [1, 6]: 0 | TEAEs Possibly related, Patient [1, 6]: 0 (0) | TEAEs Probably related, Event [1, 6]: 1 | TEAEs Probably related, Patient [1, 6]: 1 (50) | TEAEs Remotely/Unlikely related, Event [1, 6]: 0 | TEAEs Remotely/Unlikely related, Patient [1, 6]: 0 (0) | TEAEs Unrelated, Event [1, 6]: 10 | TEAEs Unrelated, Patient [1, 6]: 2 (100) | DLT Blood calcium decreased, Relationship [1, 7]: Probably related | DLT Blood calcium decreased, Severity [1, 7]: Grade 2 | Any TEAEs, Event [1, 8]: 25 | Any TEAEs, Patient [1, 8]: 3 (100) | TEAEs Definitely related, Event [1, 8]: 0 | TEAEs Definitely related, Patient [1, 8]: 0 (0) | TEAEs Possibly related, Event [1, 8]: 0 | TEAEs Possibly related, Patient [1, 8]: 0 (0) | TEAEs Probably related, Event [1, 8]: 0 | TEAEs Probably related, Patient [1, 8]: 0 (0) | TEAEs Remotely/Unlikely related, Event [1, 8]: 2 | TEAEs Remotely/Unlikely related, Patient [1, 8]: 1 (33) | TEAEs Unrelated, Event [1, 8]: 23 | TEAEs Unrelated, Patient [1, 8]: 3 (100) | frequency of drug-related TEAEs ([1]; Cohort 3 (1.375 mg/kg), 90-min infusions): 0% | Any TEAEs, Event [1, 9]: 52 | Any TEAEs, Patient [1, 9]: 6 (100) | TEAEs Definitely related, Event [1, 9]: 0 | TEAEs Definitely related, Patient [1, 9]: 0 (0) | TEAEs Possibly related, Event [1, 9]: 11 | TEAEs Possibly related, Patient [1, 9]: 4 (67) | TEAEs Probably related, Event [1, 9]: 0 | TEAEs Probably related, Patient [1, 9]: 0 (0) | TEAEs Remotely/Unlikely related, Event [1, 9]: 4 | TEAEs Remotely/Unlikely related, Patient [1, 9]: 2 (33) | TEAEs Unrelated, Event [1, 9]: 37 | TEAEs Unrelated, Patient [1, 9]: 6 (100) | frequency of drug-related TEAEs ([1]; Cohort 4 (2.75 mg/kg), 90-min infusions): 67% | DLT Ionized calcium decreased, Relationship [1, 10]: Possibly related | DLT Ionized calcium decreased, Severity [1, 10]: Grade 2 | Any TEAEs, Event [1, 11]: 14 | Any TEAEs, Patient [1, 11]: 3 (100) | TEAEs Definitely related, Event [1, 11]: 0 | TEAEs Definitely related, Patient [1, 11]: 0 (0) | TEAEs Possibly related, Event [1, 11]: 5 | TEAEs Possibly related, Patient [1, 11]: 3 (100) | TEAEs Probably related, Event [1, 11]: 3 | TEAEs Probably related, Patient [1, 11]: 1 (33) | TEAEs Remotely/Unlikely related, Event [1, 11]: 0 | TEAEs Remotely/Unlikely related, Patient [1, 11]: 0 (0) | TEAEs Unrelated, Event [1, 11]: 6 | TEAEs Unrelated, Patient [1, 11]: 2 (67) | frequency of drug-related TEAEs ([1]; Cohort 5 (4.13 mg/kg), 90-min infusions): 100% | Any TEAEs, Event [1, 12]: 34 | Any TEAEs, Patient [1, 12]: 6 (100) | TEAEs Definitely related, Event [1, 12]: 0 | TEAEs Definitely related, Patient [1, 12]: 0 (0) | TEAEs Possibly related, Event [1, 12]: 10 | TEAEs Possibly related, Patient [1, 12]: 6 (100) | TEAEs Probably related, Event [1, 12]: 0 | TEAEs Probably related, Patient [1, 12]: 0 (0) | TEAEs Remotely/Unlikely related, Event [1, 12]: 0 | TEAEs Remotely/Unlikely related, Patient [1, 12]: 0 (0) | TEAEs Unrelated, Event [1, 12]: 24 | TEAEs Unrelated, Patient [1, 12]: 5 (83) | frequency of drug-related TEAEs ([1]; Cohort 6 (6.20 mg/kg), 90-min infusions): 100% | DLT Atrial fibrillation, Relationship [1, 13]: Unrelated | DLT Atrial fibrillation, Severity [1, 13]: Grade 3 | DLT Anaemia, Relationship [1, 14]: Unrelated | DLT Anaemia, Severity [1, 14]: Grade 3 | Grade 4 TEAEs ([1]; N = 23): No Grade 4 TEAE occurred | TEAEs by MedDRA SOC: Gastrointestinal disorders, patients ([1]; N = 23): 48% | TEAEs by MedDRA SOC: General disorders and administration site conditions, patients ([1]; N = 23): 44% | TEAEs by MedDRA SOC: Infections and infestations, patients ([1]; N = 23): 48% | TEAEs by MedDRA SOC: Investigations, patients ([1]; N = 23): 44% | TEAEs by MedDRA SOC: Metabolism and nutrition disorders, patients ([1]; N = 23): 65% | drug-related Serious Adverse Events (SAEs) ([1]; N = 23): No drug-related Serious Adverse Events (SAEs) occurred | TEAE Anaemia, percentage of patients ([1]; N = 23, MedDRA preferred term): 30% | TEAE Aspartate amino transferase increased, percentage of patients ([1]; N = 23, MedDRA preferred term): 17% | TEAE Blood Calcium Decreased, percentage of patients ([1]; N = 23, MedDRA preferred term): 22% | TEAE Blood alkaline phosphatase increased, percentage of patients ([1]; N = 23, MedDRA preferred term): 13% | TEAE Constipation, percentage of patients ([1]; N = 23, MedDRA preferred term): 17% | TEAE Cough, percentage of patients ([1]; N = 23, MedDRA preferred term): 17% | TEAE Decreased Appetite, percentage of patients ([1]; N = 23, MedDRA preferred term): 22% | TEAE Diarrhoea, percentage of patients ([1]; N = 23, MedDRA preferred term): 13% | TEAE Fatigue, percentage of patients ([1]; N = 23, MedDRA preferred term): 30% | TEAE Hypercalcaemia, percentage of patients ([1]; N = 23, MedDRA preferred term): 13% | TEAE Hyperkalaemia, percentage of patients ([1]; N = 23, MedDRA preferred term): 13% | TEAE Hypoalbuminaemia, percentage of patients ([1]; N = 23, MedDRA preferred term): 30% | TEAE Hypocalcaemia, percentage of patients ([1]; N = 23, MedDRA preferred term): 13% | TEAE Nausea, percentage of patients ([1]; N = 23, MedDRA preferred term): 22% | TEAE Urinary Tract Infection, percentage of patients ([1]; N = 23, MedDRA preferred term): 30% | total number of Grade 3 TEAEs ([1]; N = 23, in thirteen patients): 18 | patients with DLTs ([1]; all cohorts, N = 23, first 21-day cycle): 26.1% | drug-related blood calcium decrease, patients ([1]; all patients N = 23): 13% | drug-related decreased appetite, patients ([1]; all patients N = 23): 9% | drug-related hypoalbuminemia, patients ([1]; all patients N = 23): 30% | drug-related hypocalcemia, patients ([1]; all patients N = 23): 13% | drug-related increased aspartate aminotransferase (AST), patients ([1]; all patients N = 23): 9% | Maximal Tolerated Dose (MTD) ([1]; doses up to 6.2 mg/kg): not established | drug-related hypocalcemia, patients ([1]; patients receiving 90-min infusions (n = 18)): 13% | patients with TEAEs related to the study drug ([1]; possibly, probably or definitely related, total population N = 23): 70% | Grade 3 TEAEs assessed as related to the study drug ([1]; urticaria, ALT increased, AST increased, headache, hypokalaemia): Five of the 18 | deaths during treatment or post-treatment follow-up ([1]; within two months after the last study drug administration): No deaths occurred | peptide degradation half-life [2]: about 1 h
